Source: patent US4389412A, “Substituted cyclopropanecarboxylic acid esters and pesticidal compositions containing the same as active ingredient” (priority 1979, dated 1983)
In brackets after ≈: the same amount, converted by molar mass. Where two headings read alike, the source gives them in different places.

Assays:
[1] = tested on: brown planthoppers (Nilaparvata lugens Stal); experiment: Utility Example-1: LC50 on adult brown planthoppers on dipped rice plants; type: in vivo; details: Nilaparvata lugens, 24 h, 25° C., read-out: Pesticidal activity LC50
Method: A 1% emulsifiable concentrate of each test compound as prepared by the procedure described in Formulation Example 2 was diluted with water to prepare a test solution of predetermined concentration.
Rice plants, 4 weeks after sowing (cultivated in a pot 6 cm in diameter, 7 seedlings) were dipped in the above solution and after allowing them to dry in the air, the pot was covered with a wire-mesh cage. Then, 30 adult brown planthoppers (Nilaparvata lugens Stal) were released into the cage and the pot was kept in a constant-temperature chamber at 25° C.

[2] = Fish toxicity test with killifish; type: in vivo, Orizias latipes; details: water, killifish, 25±1° C., read-out: TLm (48 hrs.)
Method: Fish toxicity test with killifish (Orizias latipes)
An acetone solution of one of the test compounds as mentioned in Table 8 was prepared by adding said test compound to 15 ml of acetone. To 10 liters of water was added a predetermined amount of the above acetone solution and the mixture was stirred thoroughly to prepare an aqueous solution containing the test compound in a predetermined concentration. This was used as a test water. After the each test water was moderately aerated, ten killifishes (Orizias latipes) with a body weight of about 0.25 g and a body length of about 2.5 cm were released into said each test water which was maintained at 25±1° C. After 48 hours, the test fish was examined for death. The TLm (median tolerance limit, ppm) was determined.

[3] = Fish toxicity test with carp; type: in vivo, Cyprinus carpio L; details: carp, water, 48 hrs., 21±1° C.; read-out: TLm, Carp (48 hrs.)
Method: Fish toxicity test with carp (Cyprinus carpio L)
An acetone solution of one of the test compounds as mentioned in Table 10 and Tween-20 (the same surfactant as mentioned hereinbefore) was prepared. To 50 liters of water (30 cm deep) in a glass tank was added the above acetone solution. The mixture was stirred thoroughly to prepare an aqueous solution containing the test compound in a predetermined concentration. This was used as a test water. Five carps (Cyprinus carpio L) with a body weight of about 6 g and a body length of about 6 cm were released into each test water which was maintained at 21±1° C. After 48 hours, the test fish was examined for death. The TLm (median tolerance limit, ppm) was determined. The test water was moderately aerated.

[4] = tested on: guppies (Lebistes reticulatus); experiment: Fish toxicity test with guppies; type: in vivo; details: Table 1; 48 hrs.
Method: (§1) Fish toxicity test with guppies (Lebistes reticulatus)
(§2) To 5 liters of water were added 250 mg of Sorpol SM-200 (trademark, Toho Chemical Co., Ltd.) as a surfactant and 2.5 ml of an acetone solution containing one of the test compounds in a predetermined concentration. The mixture was stirred thoroughly to prepare a test water. Ten female guppies (Lebistes reticulatus) of from 3 to 4 months of age were released into the test water which was maintained at 20° C. and the TLm (median tolerance limit, ppm) was determined.

[5] = Fish toxicity test with guppies; type: in vivo, Lebistes reticulatus; details: guppy, water, guppies, 20° C., read-out: TLm (48 hrs.)
Method: as §1, §2

[6] = tested on: houseflies (Musca domestica); experiment: Mortality test with houseflies by topical application method; details: 24 h
[7] = tested on: green rice leafhoppers (Nephotettix cincticeps Uhler); experiment: Mortality test with green rice leafhoppers by topical application method; details: Nephotettix cincticeps, in Oryza sativa, 24 h
Method: Mortality test with green rice leafhoppers (Nephotettix cincticeps Uhler) by topical application method
Then, the insects were kept at 25° C. with access to rice plant seedlings. The insects were used in groups of 15 individuals each.

[8] = Acute toxicity test in rat by the oral route; type: in vivo; details: in vivo, male rat, in olive oil, after 7 days
From the text: Acute toxicity test in rat by the oral route

[9] = tested on: carp and water flea; experiment: Fish toxicity ranking according to Japanese regulations; parameters: species or system Cyprinus carpio L; Daphnia pulex; details: from TLm for carp and water flea
Method: The above ranking with symbols A, B and C were determined according to Japanese regulations relative to application of agricultural chemicals, and these symbols are defined as follows: […]
A: TLm (48 hrs.) value >10 ppm for carp and TLm (3 hrs.) value >0.5 ppm for water flea, wherein toxicity to fishes is not observed by usual application.
B: TLm (48 hrs.) value 10-0.5 ppm for carp; or TLm (48 hrs.) value >10 ppm for carp and TLm (3 hrs.) value <0.5 ppm for water flea, wherein appreciable toxicity to fishes is not observed by usual application but may be observed when applied to wide area at one time.
C: TLm (48 hrs.) value <0.5 ppm for carp, wherein toxicity to fishes is so strongly observed by usual application that both the application method and application area are strictly restricted.

[10] = Fish toxicity safety factor (TLm divided by maximum concentration in cover water); parameters: species or system carp; details: in vivo, TLm / maximum concentration in cover water at LC50 application (100 l per 10 ares, 5 cm depth)
Method: To further confirm the low toxicity to fish and high pesticidal activity of Compounds (1) and (2) according to this invention as evidenced by the fish toxicity tests with carps and the above tests, fish toxicity safety factors were calculated from the fish toxicity and pesticidal test data. These fish toxicity safety factors are indicators of safety to fish inhabiting a paddy field to which Compounds (1) and (2) may be actually applied for pest control purposes.
It is first assumed that such a pesticidal solution would normally be applied at the rate of 100 l per 10 ares of paddy field. It is also assumed that a solution (100 l) corresponding to the LC50 of the compounds would be applied to 10 ares of a paddy field carrying a cover water with a depth of 5 cm above ground surface and that all the solution would then find its way into the cover water. The expected maximum concentration of the compound in the cover water is then calculated. The fish toxicity safety factor of a pesticidal compound is defined as the value obtained by dividing the TLm (ppm) of the particular compound by the maximum concentration of the compound in cover water. The meaning of the value of the fish toxicity safety factor being one (1) is that the maximum concentration of the particular compound in cover water corresponds to the TLm of said compound. It is understood that when the pesticidal compound having a fish toxicity safety factor value of less than one (1) is applied to a paddy field, it has a risk of destroying the fish inhabiting there, and that the higher the safety factor value, the higher is the safety of the compound to fish.
This fish toxicity safety factor will now be explained in further detailed by taking the trans-isomer of Compound (2) of this invention as an example.
On the other hand, the toxicity to fish of this compound is TLm >10 ppm. Therefore, by dividing the TLm (i.e. >10 ppm) by the above cover water maximum concentration (i.e. 0.36 ppm), we obtain a fish toxicity safety factor of >28. Thus, the concentration of the trans-isomerof Compound (2) which kills 50% of pests corresponds to less than 1/28 of the concentration of the same isomer which kills 50% of fish. In other words, this means that the trans-isomer of Compound (2) is extremely safe to fish.

[11] = tested on: rice stem borers (Chilo suppressalis Walker); experiment: Mortality test with rice stem borers by topical application method; type: in vivo; details: 24 h
Method: Mortality test with rice stem borers (Chilo suppressalis Walker) by topical application method
Using a microsyringe, 0.5 μl of the above solution was applied to the thoracic abdominal region of each final-instar larva of rice stem borer (Chilo suppressalis Walker). […] The test larvae were used in groups of 20 individuals each.

[12] = tested on: tobacco cutworms (Prodenia litura Fabricius); experiment: Mortality test with tobacco cutworms by topical application method; type: in vivo; details: 24 h
Method: Mortality test with tobacco cutworms (Prodenia litura Fabricius) by topical application method
Using a microsyringe, 0.5 μl of the above solution was dripped onto the thoracic adbominal region of each of 3-instar tobacco cutworm (Prodenia litura Fabricius) larvae. […] The test larvae were used in groups of 20 individuals each.

[13] = tested on: green rice leafhoppers (Nephotettix cincticeps); experiment: Utility Example-6: 0.5% dust on rice seedlings, green rice leafhoppers; type: in vivo; details: 1 kg per 10 ares, 24 hours, resistant to organophosphorus and carbamate pesticides
From the text: A 0.5% dust preparation of each of the cis- and trans-isomers and a 50:50 mixture of the cis- and trans-isomers of Compound (1) and of Compound (2) as prepared by the procedure described in Formulation Example-4 was applied to rice seedlings by means of a bell-jar duster at the rate of 1 kg per 10 ares. Then, 30 green rice leafhoppers (Nephotettix cincticeps) resistant to organophosphorus and carbamate pesticides were released. […] In all cases, the mortality was not less than 90%.

[14] = tested on: green rice leafhoppers (Nephotettix cincticeps Uhler); experiment: Utility Example-2: spray on rice plants, green rice leafhoppers; type: in vivo; details: 7 ml/pot, 24 hours
Method: A 30% emulsifiable concentrate of each of the cis- and trans-isomers and a 50:50 mixture of the cis- and trans-isomers of Compound (1) and Compound (2) as prepared by the procedure described in Formulation Example-1 was diluted with water to a concentration of 80 ppm as active compound. Rice plants 4 weeks after sowing in pots (each pot 6 cm in diameter, 7 seedlings) were sprayed with the above solution at the rate of 7 ml/pot and, after drying in the air, each pot was covered with a wire-mesh cage. Then, 20 female adult green rice leafhoppers (Nephotettix cincticeps Uhler) were released into the cage. The caged pots were kept in a constant-temperature chamber at 25° C. […] In all groups, the mortality values were not less than 90%.

[15] = tested on: brown planthoppers (Nilaparvata lugens); experiment: Utility Example-7: 0.5% dust on rice seedlings, brown planthoppers; type: in vivo; details: 1 kg per 10 ares, 24 hours
From the text: A 0.5% dust preparation of each of the cis- and trans-isomers and a 50:50 mixture of the cis- and trans-isomers of Compound (1) and of Compound (2) as prepared by the procedure described in Formulation Example-4 was applied to rice seedlings, on which 30 adult brown planthoppers (Nilaparvata lugens) were released, by means of a bell-jar duster at the rate of 1 kg per 10 ares. […] In all cases, the mortality was not less than 90%.

[16] = tested on: green rice leafhoppers (Nephotettix cincticeps Uhler); experiment: Utility Example-4: 0.2% dust on rice seedlings, green rice leafhoppers; type: in vivo; details: 5 kg per 10 ares, 24 hours, resistant to organophosphorus and carbamate pesticides
From the text: A 0.2% dust preparation of each of the cis- and trans-isomers and a 50:50 mixture of the cis- and trans-isomers of Compound (1) and of Compound (2) as prepared by the procedure described in Formulation Example-3 was applied to rice seedlings by means of a bell-jar duster at the rate of 5 kg per 10 ares. […] In all cases, the mortality was not less than 90%.

[17] = tested on: two-spotted spider mites (Tetranychus urticae Koch); experiment: Mortality test with two-spotted spider mites by spray application method; type: in vivo; details: 48 h, 200 ppm spray, two days, read-out: Percent decrease of population (%)
Method: Mortality test with two-spotted spider mites (Tetranychus urticae Koch) by spray application method
To a 5% aqueous solution of acetone was added dropwise a small amount of Tween-20 (polyethylene sorbitan monolaurate) as a surfactant. […] From 30 to 50 adult two-spotted spider mites (Tetranychus urticae Koch) were released on the leaves of kidney-bean plants in the dicotyledonous stage in a pot 9 cm in diameter, followed by a spray application of the above solution. The pot was kept in a constant-temperature chamber at 26° C. and two days later the mites were examined for deaths. The percent decrease of population was then calculated.

[18] = tested on: small brown planthoppers (Laodelphax striatellus Fallen); experiment: Utility Example-3: spray on rice plants, small brown planthoppers; type: in vivo; details: 7 ml/pot, 24 hours
Method: A 30% emulsifiable concentrate of each of the cis- and trans-isomers and a 50:50 mixture of the cis- and trans-isomers of Compound (1) and of Compound (2) as prepared by the procedure described in Formulation Example-1 was diluted with water to a concentration of 80 ppm as active compound. Rice plants 4 weeks after sowing in pots (each pot 6 cm in diameter, 7 seedlings) were sprayed with the above diluted solution at the rate of 7 ml/pot and, after drying in the air, each pot was covered with a wire-mesh cage. Then, 30 adult small brown planthoppers (Laodelphax striatellus Fallen) were released into the cage. The pots were kept in a constant-temperature chamber at 25° C. […] In all groups, the mortality was not less than 90%.

CC1(C)C(C=C(Cl)Cl)C1C(=O)OC(C#N)c1cccc(Oc2ccccc2)c1 (stereo not shown) [Compound (C), Cypermethrin]
LC50 [1]: 210 µg/mL (≈ 504 µM) | LC50 at 48 h [2]: 0.026 µg/mL (≈ 0.0625 µM) | LC50 at 48 h [3]: 0.0045 µg/mL (≈ 0.0108 µM) | Toxicity to fish TLm, guppy [4]: < 0.5 ppm | LC50 at 48 h [5]: < 0.5 µg/mL | mortality at 0.5 µg/female [6]: 100% | mortality at 1 µg/female [6]: 100% | mortality at 0.001 mg ([6]; read-out: Pesticidal effect, housefly): 100% | mortality at 0.01 µg/female [7]: 100% | mortality at 0.1 µg/female [7]: 100% | mortality at 1 µg/female [7]: 100% | mortality at 10 ng ([7]; read-out: Pesticidal effect, green rice leafhopper): 100% | LD50 at 168 h [8]: 310 mg/kg | Ranking [9]: C (TLm (48 hrs.) value <0.5 ppm for carp, wherein toxicity to fishes is so strongly observed by usual application that both the application method and application area are strictly restricted.) | selectivity ratio [10]: 0.01 | mortality at 1 µg/larva [11]: 95% | mortality at 10 µg/larva [11]: 100% | mortality at 0.001 mg ([11]; read-out: Pesticidal effect, rice stem borer): 95% | mortality at 0.0001 mg ([12]; read-out: Pesticidal effect, tobacco cutworm): 100%

CC1(C)[C@H](C=C(Cl)Cl)[C@@H]1C(=O)OCc1cccc(Oc2ccc(Cl)cc2)c1 (relative stereo) [Compound (1) cis-, 3-(4-chlorophenoxy)benzyl cis-2,2-dimethyl-3-(2,2-dichlorovinyl)cyclopropanecarboxylate]
mortality [13]: not less than 90% | mortality at 80 ppm [14]: ≥ 90% | mortality [15]: not less than 90% | mortality [16]: not less than 90% | mortality at 200 ppm [17]: 100% | LC50 at 48 h [2]: > 10 µg/mL | mortality at 0.5 µg/female [6]: 100% | mortality at 1 µg/female [6]: 100% | mortality at 1 µg/larva [11]: 100% | mortality at 10 µg/larva [11]: 100% | mortality at 0.0001 mg [12]: 100% | mortality at 80 ppm [18]: ≥ 90%
